pIC50: −log10 of the molar value.
target: T1, sPHEX (Homo sapiens, UniProt P78562); test: sPHEX inhibitor IC50 determination using a fluorogenic substrate (Abz-GFSDYK-Dnp, S3); assay type: biochemical; settings: fluorogenic substrate 20 μM, 100 ng sPHEX, pH 6.5
T1 construct: The soluble form of the metallopeptidase PHEX (sPHEX) was purified to homogeneity; made in house
T1 sequence (P78562 53-749 limits assumed): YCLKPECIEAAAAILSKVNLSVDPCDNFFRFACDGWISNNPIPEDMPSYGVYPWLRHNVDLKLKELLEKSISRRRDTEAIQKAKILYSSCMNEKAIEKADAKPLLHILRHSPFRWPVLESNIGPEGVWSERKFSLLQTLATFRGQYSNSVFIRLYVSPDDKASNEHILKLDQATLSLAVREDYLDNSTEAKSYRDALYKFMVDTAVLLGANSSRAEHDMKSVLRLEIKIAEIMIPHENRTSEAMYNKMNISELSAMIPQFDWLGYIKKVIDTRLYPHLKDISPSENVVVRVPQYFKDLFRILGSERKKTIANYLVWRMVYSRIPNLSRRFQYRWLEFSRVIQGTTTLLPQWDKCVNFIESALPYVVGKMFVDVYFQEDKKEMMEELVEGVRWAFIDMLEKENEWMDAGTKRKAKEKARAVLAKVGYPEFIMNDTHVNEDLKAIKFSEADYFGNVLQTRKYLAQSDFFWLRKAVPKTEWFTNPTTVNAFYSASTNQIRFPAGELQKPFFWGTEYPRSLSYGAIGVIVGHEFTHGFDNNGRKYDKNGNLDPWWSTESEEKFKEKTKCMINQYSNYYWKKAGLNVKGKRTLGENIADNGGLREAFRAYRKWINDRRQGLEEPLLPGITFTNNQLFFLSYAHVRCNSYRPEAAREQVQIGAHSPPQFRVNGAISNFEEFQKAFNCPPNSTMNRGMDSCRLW
Procedure: The soluble form of the metallopeptidase PHEX (sPHEX) was purified to homogeneity according to the methods of Boileau and Crine (WO 00/50580). sPHEX quantity was measured with the Bradford assay (BioRad) using BSA as a standard.
sPHEX activity was determined using a fluorogenic substrate in which an increase of fluorescence was proportional to substrate conversion to products.
S3 was synthesized at Dr. Gilles Lajoie's laboratories (University of Western Ontario, Canada) by standard solid phase peptide synthesis. The fluorescent reaction product was excited at 320 nm to fluoresce at 420 nm. Fluorescence was recorded at 420 nm every five minutes over a one-hour period on a fluorescence plate reader (Perkin-Elmer, HTS-7000) to calculate the initial rate of the reaction. Typically, the reaction was carried out in 200 μl of buffer M (50 mM Mes(NaOH) pH 6.5, 150 mM NaCl) containing 100 ng of purified sPHEX and 20 μM of fluorigenic substrate to initiate the reaction. Enzymatic activity was determined by subtracting either the initial rate of substrate in buffer (solvolysis), or the typical reaction rate in which 5 mM EDTA was added prior to initiating the reaction.
sPHEX inhibitor IC50 determinations were done using the tested inhibitor at various concentrations coming from a serial dilution (usually ranging from 10^−3 M to 10^−12 M) in the reaction described above. IC50 values were calculated using the iterative four parameters non-linear regression formula from the GraphPad™ software (Prism).

pIC50 | SMILES
6.07 | O=C(O)CC(CC(=O)NO)C(=O)NCCOc1ccccc1 (stereo not shown) [Example 138, 4-Hydroxycarbamoyl-3-(2-phenoxy-ethylcarbamoyl)-butyric acid]
7.42 | O=C(O)C[C@H](NC(=O)[C@@H](S)Cc1ccccc1)C(=O)N[C@@H](Cc1ccc(-c2ccccc2)cc1)C(=O)O [Example 110, N-(2-Biphenyl-4-yl-1-Carboxy-ethyl)-3-(2-mercapto-3-phenyl-propionylamino)-succinamic acid]
6.62 | O=C(O)CC(CC(=O)NO)C(=O)NCCc1ccc(-c2ccccn2)cc1 (stereo not shown) [Example 132, 4-Hydroxycarbamoyl-3-[2-(4-pyridin-2-yl-phenyl)-ethylcarbamoyl]-butyric acid]
6.72 | N#Cc1ccc(-c2ccc(CCNC(=O)C(CC(=O)O)CC(=O)NO)cc2)cc1 (stereo not shown) [Example 130, 3-[2-(4′-Cyano-biphenyl-4-yl)-ethylcarbamoyl]-4-hydroxycarbamoyl-butyric acid]

Further lines, the compound ahead of its results:

SMILES | pIC50
O=C(O)C[C@H](NC(=O)[C@@H](S)Cc1ccccc1)C(=O)N[C@@H](Cc1ccccc1)C(=O)O [Example 109, N-[1-Carboxy-2-phenyl-ethyl)-3-(2-mercapto-3-phenyl-propionylamino)-succinamic acid] | 8.15
O=C(O)C[C@@H](NC(=O)[C@@H](S)Cc1ccccc1)C(=O)N[C@@H](Cc1c[nH]c2ccccc12)C(=O)O [Example 112, N-[1-Carboxy-2-(1H-indol-3-yl)-ethyl]-3-(2-mercapto-3-phenyl-propionylamino)-succinamic acid] | 7.82
CC(C)[C@H](S)C(=O)N[C@@H](CC(=O)O)C(=O)N[C@@H](Cc1c[nH]c2ccccc12)C(=O)O [Example 92, N-[1-Carboxy-2-(1H-indol-3-yl)-ethyl]-3-(2-mercapto-3-methyl-butyrylamino)-succinamic acid] | 8.30
C[C@H](O)[C@H](S)C(=O)N[C@@H](CC(=O)O)C(=O)N[C@@H](Cc1c[nH]c2ccccc12)C(=O)O [Example 94, N-[1-Carboxy-2-(1H-indol-3-yl)-ethyl]-3-(3-hydroxy-2-mercapto-butyrylamino)-succinamic acid] | 8.40
O=C(O)C[C@H](NC(=O)[C@@H](S)Cc1ccc(-c2ccccc2)cc1)C(=O)N[C@@H](Cc1c[nH]c2ccccc12)C(=O)O [Example 98, 3-(3-Biphenyl-4-yl-2-mercapto-propionylamino)-N-[1-Carboxy-2-(1H-indol-3-yl)-ethyl]-succinamic acid] | 8.10
COc1ccc(C[C@H](S)C(=O)N[C@@H](CC(=O)O)C(=O)N[C@@H](Cc2c[nH]c3ccccc23)C(=O)O)cc1 [Example 101, N-[1-Carboxy-2-(1H-indol-3-yl)ethyl]-3-[2-mercapto-3-(methoxy-phenyl)-propionylamino]-succinamic acid] | 7.74

Reference: US20060135480A1, “Derivatives of succinic and glutaric acids and analogs thereof useful as inhibitors of phex” (Enobia Pharma, priority 2002, published 2006)
